Measurements from ChEMBL document CHEMBL3804814, “Quinazolines and quinazolinones as ubiquitous structural fragments in medicinal chemistry: An update on the development of synthetic methods and pharmacological diversification” (Bioorg Med Chem, 2016).
pIC50: −log10 of the molar value.

What was measured:
HT-29 = test: Anticancer activity against human HT-29 cells measured after 72 hrs by MTT assay; type: functional, cell-based; details: HT-29, 72 h
[1] = Anticancer activity against human HCT116 cells measured after 72 hrs by MTT assay; type: functional, cell-based; details: HCT-116, 72 h
[2] = Cytotoxicity against human lymphocytes measured after 72 hrs by MTT assay; type: cell-based; details: Lymphocyte
Cavia porcellus = species: Cavia porcellus; test: Antihistaminic activity in guinea pigs assessed as supression of histamine induced bronchospasm
[3] = target: Cathepsin B (Capra hircus) (UniProt H9B8T9); details: 25 uM
Description: Inhibition of goat cathepsin B at 25 uM in presence of BANA after 30 mins by colorimetric method

[4] = target: Cathepsin B (Capra hircus) (UniProt H9B8T9); details: 100 nM
Description: Inhibition of goat cathepsin B at 100 nM in presence of BANA after 30 mins by colorimetric method

Thymidine phosphorylase = Thymidine phosphorylase (Escherichia coli K-12, UniProt P07650); test: Inhibition of recombinant Escherichia coli thymidine phosphorylase using thymidine as substrate measured after 10 mins at 30 degC by spectrophotometric method
HepG2 [5] = test: Cytotoxicity against human HepG2 cells measured after 48 hrs by SRB assay; type: functional, cell-based
[6] = Anticancer activity against human HCT116 cells measured after 48 hrs by SRB assay; type: functional, cell-based; details: hct-116
HepG2 [7] = test: Potency index, ratio of doxorubicin IC50 to compound IC50 for anticancer activity against human HepG2 cells after 48 hrs by SRB assay; type: functional
Mus musculus = species: Mus musculus; test: Anticonvulsant activity in mouse assessed as reduction in MES-induced seizures by maximal electroshock seizure test; type: functional
[8] = Protective index, ratio of neurotoxicity in mouse to anticonvulasnt activity for MES-induced seizure mouse model; type: toxicity, organism-based; details: in vivo, read-out: PI
Plasmodium berghei [9] = test: Antimalarial activity against chloroquine-sensitive Plasmodium berghei ANKA infected Swiss albino mouse assessed as suppression of parasitemia at 16.59 mg/kg administered for 4 consecutive days measured on 5th day by Giemsa staining based microscopic method; type: functional
Plasmodium berghei [10] = test: Antimalarial activity against chloroquine-sensitive Plasmodium berghei ANKA infected Swiss albino mouse assessed as mean survival time at 16.59 mg/kg administered for 4 consecutive days; type: functional
[11] = Anticancer activity against human NCI lung cancer cell by MTT assay; type: functional, cell-based; details: Cancer cell lines
[12] = target: T1, Cathepsin H (Capra hircus) (UniProt A0A060INS8); test: Inhibition of goat cathepsin H at 10 uM in presence of Leu-beta-NA after 30 mins by colorimetric method
T1 sequence (whole entry): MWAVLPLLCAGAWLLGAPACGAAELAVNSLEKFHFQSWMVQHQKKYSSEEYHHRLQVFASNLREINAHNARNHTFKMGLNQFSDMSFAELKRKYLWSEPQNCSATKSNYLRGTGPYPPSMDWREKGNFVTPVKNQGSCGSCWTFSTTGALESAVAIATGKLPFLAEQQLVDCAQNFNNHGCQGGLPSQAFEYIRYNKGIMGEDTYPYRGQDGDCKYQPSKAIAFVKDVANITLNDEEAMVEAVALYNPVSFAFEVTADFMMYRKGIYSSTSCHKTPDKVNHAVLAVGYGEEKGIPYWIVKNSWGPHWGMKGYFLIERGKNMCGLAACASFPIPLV

[13] = target: T1, Cathepsin H (Capra hircus); test: Inhibition of goat cathepsin H at 750 uM in presence of Leu-beta-NA after 30 mins by colorimetric method
[14] = target: Epidermal growth factor receptor (Homo sapiens) (UniProt P00533); test: Inhibition of EGFR-TK receptor (unknown origin); details: concentration not given here
Plasmodium berghei [15] = test: Antimalarial activity against chloroquine-sensitive Plasmodium berghei ANKA infected Swiss albino mouse assessed as suppression of parasitemia at 18.73 mg/kg administered for 4 consecutive days measured on 5th day by Giemsa staining based microscopic method; type: functional
Plasmodium berghei [16] = test: Antimalarial activity against chloroquine-sensitive Plasmodium berghei ANKA infected Swiss albino mouse assessed as parasitemia at 18.73 mg/kg administered for 4 consecutive days measured on 5th day by Giemsa staining based microscopic method; type: functional
Plasmodium berghei [17] = test: Antimalarial activity against chloroquine-sensitive Plasmodium berghei ANKA infected Swiss albino as mean survival time at 18.73 mg/kg administered for 4 consecutive days; type: functional
[18] = target: Epidermal growth factor receptor (Homo sapiens) (UniProt P00533); test: Inhibition of EGFR-tyrosine kinase (unknown origin) at 10 uM measured after 2 hrs by kinase-glo plus luminescence kinase assay

Chain of Thymidine phosphorylase (P07650 whole entry): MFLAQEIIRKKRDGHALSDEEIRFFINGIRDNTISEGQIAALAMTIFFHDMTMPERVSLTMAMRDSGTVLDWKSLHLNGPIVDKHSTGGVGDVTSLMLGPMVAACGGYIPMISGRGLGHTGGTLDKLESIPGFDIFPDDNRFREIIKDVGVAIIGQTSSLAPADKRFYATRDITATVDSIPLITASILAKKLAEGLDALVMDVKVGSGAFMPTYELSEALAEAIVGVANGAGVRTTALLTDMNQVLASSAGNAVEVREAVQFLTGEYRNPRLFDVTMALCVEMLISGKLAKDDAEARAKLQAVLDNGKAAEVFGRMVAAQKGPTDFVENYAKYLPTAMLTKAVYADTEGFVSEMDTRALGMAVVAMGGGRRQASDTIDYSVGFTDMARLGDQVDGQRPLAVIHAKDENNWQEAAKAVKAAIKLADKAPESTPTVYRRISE
Chain of Epidermal growth factor receptor (Homo sapiens) (P00533 whole entry): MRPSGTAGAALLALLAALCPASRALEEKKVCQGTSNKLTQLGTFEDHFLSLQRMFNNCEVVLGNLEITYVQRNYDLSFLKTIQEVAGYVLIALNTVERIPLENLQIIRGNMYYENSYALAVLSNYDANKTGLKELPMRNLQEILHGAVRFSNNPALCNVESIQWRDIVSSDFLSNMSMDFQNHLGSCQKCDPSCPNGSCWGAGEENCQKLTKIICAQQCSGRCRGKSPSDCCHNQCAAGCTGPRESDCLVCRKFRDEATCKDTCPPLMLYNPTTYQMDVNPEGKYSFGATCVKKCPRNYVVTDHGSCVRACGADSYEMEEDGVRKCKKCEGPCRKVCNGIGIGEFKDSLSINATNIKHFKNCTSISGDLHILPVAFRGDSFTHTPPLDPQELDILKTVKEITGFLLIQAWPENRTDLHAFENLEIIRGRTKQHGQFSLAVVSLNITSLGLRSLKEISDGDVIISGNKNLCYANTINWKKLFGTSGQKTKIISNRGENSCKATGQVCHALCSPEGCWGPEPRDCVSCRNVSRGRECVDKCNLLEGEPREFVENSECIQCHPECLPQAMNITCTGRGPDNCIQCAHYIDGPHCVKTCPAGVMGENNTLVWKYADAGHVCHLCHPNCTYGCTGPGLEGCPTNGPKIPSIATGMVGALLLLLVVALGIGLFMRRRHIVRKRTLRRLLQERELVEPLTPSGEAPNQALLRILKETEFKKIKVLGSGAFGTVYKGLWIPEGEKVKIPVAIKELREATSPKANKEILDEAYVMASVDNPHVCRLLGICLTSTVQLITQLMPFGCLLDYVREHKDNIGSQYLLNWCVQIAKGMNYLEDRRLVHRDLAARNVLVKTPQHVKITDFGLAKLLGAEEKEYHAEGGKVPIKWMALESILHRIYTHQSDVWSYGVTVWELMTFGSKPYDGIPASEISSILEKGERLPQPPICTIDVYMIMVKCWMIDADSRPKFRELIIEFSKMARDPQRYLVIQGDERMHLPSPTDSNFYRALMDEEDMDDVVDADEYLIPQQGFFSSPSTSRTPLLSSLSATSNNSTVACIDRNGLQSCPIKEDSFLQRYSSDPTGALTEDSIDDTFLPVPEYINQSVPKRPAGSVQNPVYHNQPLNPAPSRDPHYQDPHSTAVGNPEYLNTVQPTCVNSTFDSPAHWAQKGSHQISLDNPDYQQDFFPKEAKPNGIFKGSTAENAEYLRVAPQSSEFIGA

Molecule `O=c1c2cc(N3CCN(c4ccccc4F)CC3)ccc2ncn1Cc1ccccc1` has a pIC50 (HT-29) of 4.29, a pIC50 [1] of 4.34 and a pIC50 [2] of 3.71.
For `CN(C)CCC(c1ccc(Cl)cc1)c1ccccn1.O=C(O)/C=C\C(=O)O` (configuration not stated) [CHLORPHENIRAMINE MALEATE], the “inhibition (INH)” value (Cavia porcellus) was 70.09%.
Molecule `Cc1ccc(C2NC(=O)c3ccccc3N2)cc1` (configuration not stated) has an inhibition [3] of 100% and an inhibition [4] of 50%.
`O=c1[nH]c(-c2ccc(O)c(O)c2)nc2ccccc12` showed a pIC50 (Thymidine phosphorylase) of 4.37.
With `COc1ccc(-c2cc(-c3ccc(-n4c(-c5ccco5)nc5ccccc5c4=O)cc3)[nH]c(=N)c2C#N)cc1` the IC50 (HepG2 [5]) was 6.6 µM, the IC50 [6] was 0.2 µM and the “Ratio IC50” value (HepG2 [7]) was 4.
Molecule `O=c1c2ccccc2nc(-n2cncn2)n1-c1ccc(Cl)cc1` has an ED50 (Mus musculus) of 88 mg/kg and a selectivity ratio [8] of over 25.5.
In the case of `O=c1[nH]c(-c2cc(O)ccc2O)nc2ccccc12`, the pIC50 (Thymidine phosphorylase) was 4.23.
In the case of `COc1cccc2c1C(=O)c1c(O)c3c(c(O)c1C2=O)C[C@@](O)(C(=O)CO)C[C@@H]3O[C@H]1C[C@H](N)[C@H](O)[C@H](C)O1` [DOXORUBICIN], the IC50 (HepG2 [5]) was 5.7 µM and the IC50 [6] was 4.8 µM.
For `O=c1c2ccccc2nc(/C=C/c2ccc(O)cc2)n1-c1ccccc1`, the inhibition in vivo at 16.59 mg/kg (Plasmodium berghei [9]) was 67.6% and the MST (Plasmodium berghei [10]) was 8.3 days.
Molecule `O=c1c2ccccc2nc(-n2cncn2)n1-c1cccc(Br)c1` has an ED50 (Mus musculus) of 94.6 mg/kg and a selectivity ratio [8] of over 26.
With `Cc1ccc(-c2cc(-c3ccc(-n4c(-c5ccco5)nc5ccccc5c4=O)cc3)[nH]c(=N)c2C#N)cc1` the IC50 (HepG2 [5]) was 6.7 µM and the IC50 [6] was 1.2 µM.
In the case of `Cc1cc(C)nc(NS(=O)(=O)c2ccc(-n3c(C)nc4ccc(F)cc4c3=O)cc2)n1`, the pIC50 [11] was 5.60.
In the case of `O=C1NC(c2ccc(F)cc2)Nc2ccccc21` (configuration not stated), the inhibition [12] was 100% and the inhibition [13] was 50%.
In the case of `Cc1nnc2n(-c3cccc(Cl)c3)c(=O)c3ccccc3n12`, the “inhibition (INH)” value (Cavia porcellus) was 69.65%.
Molecule `O=C(/C=C/c1ccccc1)c1ccc(-n2c(-c3ccco3)nc3ccccc3c2=O)cc1` has an inhibition [14] of 84%.
In the case of `CN(Cc1cnc2nc(N)nc(N)c2n1)c1ccc(C(=O)N[C@@H](CCC(=O)O)C(=O)O)cc1` [METHOTREXATE], the pIC50 [11] was 5.62.
`COc1cc(/C=C/c2nc3ccccc3c(=O)n2-c2ccccc2C)ccc1O` gave an inhibition in vivo at 18.73 mg/kg (Plasmodium berghei [15]) of 72.9%, an Activity (Plasmodium berghei [16]) of 17.71% and an MST (Plasmodium berghei [17]) of 9.2 days.
For `N#CC1=C(N)OC(c2ccc(-n3c(-c4ccco4)nc4ccccc4c3=O)cc2)=CC1c1ccc(Cl)cc1` (configuration not stated), the “Ratio IC50” value (HepG2 [7]) was 24 and the inhibition [18] was 95.6%.
